According to patent publication US20050124963A1, “Method for treating aspects of alcoholism, addiction and psychosis” (priority 2003, published 2005):
Like-named read-outs stand apart in the source and are kept apart here.

Tests used:
D2 receptor = D2 receptor (Homo sapiens, UniProt P14416); settings: 1-100 nM dopamine, in vitro; cited from earlier work
striatal D2 receptors = target: T1, striatal D2 receptors (Rattus norvegicus, UniProt P61169); assay: [3H]PHNO binding to striatal D2 receptors; settings: control striata
T1 construct: each rat underwent CO2 narcosis and cervical dislocation; the striata were removed; from tissue; host or cells: rat striatum (male Sprague Dawley)
T1 sequence (P61169 whole entry): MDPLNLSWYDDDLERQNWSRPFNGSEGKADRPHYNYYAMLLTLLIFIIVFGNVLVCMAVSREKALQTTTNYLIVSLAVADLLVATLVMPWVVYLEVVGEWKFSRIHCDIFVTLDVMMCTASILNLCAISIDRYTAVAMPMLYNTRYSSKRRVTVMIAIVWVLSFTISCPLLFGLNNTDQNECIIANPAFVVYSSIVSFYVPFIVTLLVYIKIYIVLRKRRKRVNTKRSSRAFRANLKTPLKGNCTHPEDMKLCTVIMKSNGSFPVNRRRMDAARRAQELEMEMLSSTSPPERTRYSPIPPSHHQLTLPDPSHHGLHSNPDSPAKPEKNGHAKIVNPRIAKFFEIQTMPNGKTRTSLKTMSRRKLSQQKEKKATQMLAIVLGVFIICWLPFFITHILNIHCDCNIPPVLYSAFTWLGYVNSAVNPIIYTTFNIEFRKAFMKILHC
Description: To induce ethanol dependence, rats (male Sprague Dawley, 200 g) received an intraperitoneal injection of 0.9% NaCl or 2 g/kg ethanol twice daily (i.e., 1.4 ml of 18% ethanol [in 0.9% NaCl] per 100 g at 9 AM and again at 3 PM daily) for 10 days (Lindholm et al., Alcohol 22: 165-171, 2000). On different days during the withdrawal period, each rat underwent CO2 narcosis and cervical dislocation; the striata were removed. The frozen (−70° C.) striata were blotted and weighed. […] The binding of [^3H]PHNO (or [+]-4-propyl-9-hydroxynaphthoxazine) (0.1 to 4.5 nM; […]; custom synthesized by New England Nuclear Corp.; non-specific binding defined by 10 μM S-(−)-sulpiride) to striatal D2 receptors was done as reported elsewhere (Seeman et al., Synapse 14: 254-262, 1993; Synapse 46: 235-239, 2002).
To confirm the elevation of D2^High sites by another method, [^3H]PHNO (or [+]-4-propyl-9-hydroxynaphthoxazine), a selective D2 agonist (Seeman et al., Synapse 14: 254-262, 1993) can be used.

[1] = test system: high-affinity states of D2; settings: rats sensitized to amphetamine; cited from earlier work
[2] = target: T2, high-affinity state of dopamine D2 receptor (D2High) (Rattus norvegicus, UniProt P61169); settings: 7 days withdrawal, [3H]PHNO
T2 sequence (P61169 whole entry): as above

[3] = target: T2, high-affinity state of dopamine D2 receptor (D2High)
[4] = test system: high-affinity state of dopamine D2 receptor (D2High); type: in vivo, rat
[5] = first eight days after stopping ethanol, [3H]raclopride

D2 receptor, sequence (P14416 whole entry): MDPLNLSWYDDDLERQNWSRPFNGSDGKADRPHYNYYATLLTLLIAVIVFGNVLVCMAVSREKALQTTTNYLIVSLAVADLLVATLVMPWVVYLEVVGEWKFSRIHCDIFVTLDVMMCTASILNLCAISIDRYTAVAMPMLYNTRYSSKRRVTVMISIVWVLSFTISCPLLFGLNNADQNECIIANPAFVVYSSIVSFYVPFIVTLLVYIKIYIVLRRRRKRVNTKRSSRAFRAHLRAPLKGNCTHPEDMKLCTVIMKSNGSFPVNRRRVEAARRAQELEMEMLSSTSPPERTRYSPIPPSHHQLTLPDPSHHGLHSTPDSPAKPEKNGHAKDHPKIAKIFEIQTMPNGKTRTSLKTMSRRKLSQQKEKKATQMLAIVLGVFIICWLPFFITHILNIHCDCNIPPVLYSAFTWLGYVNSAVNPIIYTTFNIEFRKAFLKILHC

Compound: CCN1CCC[C@H]1CNC(=O)c1c(O)c(Cl)cc(Cl)c1OC (racemic) [[^3H]raclopride]
- displacement by low concentrations of dopamine (D2 receptor): not significantly displaced

Compound: CCCN1CCOC2c3cc(O)ccc3CCC21 (stereo not drawn) [[^3H]PHNO, [+]-4-propyl-9-hydroxynaphthoxazine]
- Kd (striatal D2 receptors): 710 pM

Compound: CC(N)Cc1ccccc1 (stereo not drawn) [amphetamine]
- elevation of high-affinity states of D2 [1]: over 350%

Compound: CCO [ethanol]
- increase of D2High over control value of 2.6 pmol/g [2]: 273%
- D2High ([2]; ethanol-treated striata): 7.1 pmol/g
- duration of elevation of D2High sites after ethanol withdrawal ([3]; before returning to normal): almost two weeks
- D2High sites ([3]; day 15 after stopping ethanol (back to normal)): ≤ 2 pmol/g
- D2High sites ([3]; days 11 and 12 after stopping ethanol): 4.8 pmol/g
- increase in D2High ([3]; ethanol-withdrawn): 3.2 fold
- D2 density ([3]; first eight days after stopping ethanol (2 g/kg i.p. twice daily, 10 days), [3H]raclopride, no guanilylimidodiphosphate): 19 ± 0.8 pmol/g
- D2High density (increase in receptor density with guanilylimidodiphosphate) [3, 5]: 7.2 ± 0.6 pmol/g
- D2 density in the presence of guanilylimidodiphosphate [3, 5]: 26.1 ± 0.8 pmol/g
- increase of D2High over control value of 2 pmol/g ([3]; upon withdrawal of ethanol, [3H]raclopride): 360%

Compound: FC(F)OC(Cl)C(F)(F)F (stereo not drawn) [isoflurane]
- D2High density ([4]; ethanol-treated rats five days into withdrawal, isoflurane one hour (deep stage 3 surgical anesthesia), striata 24 hours later): 1.3 pmol/g
- effect on elevated D2High ([4]; one hour of deep general anesthesia, ethanol-withdrawn rats): restored D2^High to normal
